This assay has as its system HCT116 MTAP-deleted cell lines. The assay can be described thus: Cell viability assay (CellTiter-Glo, 7 days), HCT116 MTAP-deleted. The class given is cell-based. To be noted: Homo sapiens, HCT-116, HCT116 MTAP-deleted, class symbols, read-out: CC50. As for the experimental part: Control compounds were analyzed in parallel each time for quality control. In Brief, on Day -1, a serial dilution of stock compounds in DMSO was performed using BioMek liquid handlers and dispensed using Echo acoustic dispenser into 384 well plates. Both tool compounds and sample compounds were spotted in the same plate for a dose response of PRMT5 inhibitors. Compound plates were stored as frozen until the cells were ready for seeding. […] After equilibrating the plate in room temperature, the cells were incubated for 7 days inside the sealed incubator set at 37° C. with 90% humidity and 5% CO2. On Day 7, the viability of cells was measured using a CTG assay kit (CellTitre-Glo;Promega cat no. G7573). Shortly, 40 μl per well of luminescent cell viability assay reagent were dispensed using EL460 liquid dispenser 5 μl cassette. CTG luminescence signal was measured using an EnVision plate reader (PerkinElmer) in accordance with manufacturer's instruction. […] Selectivity with * is artificially high due to limited solubility of the compound hampering accurate measurement of WT CC50.

SMILES strings stand for the structures. Where two headings read alike, the source gives them in different places.

The term CC50 denotes the concentration giving 50% cytotoxicity. `CC(=O)N(C)N(Cc1ccn(-c2ccc(F)cc2F)n1)C(=O)c1cc2c(cc1F)nc(N)c1cncn12` [Fb-16, N′-acetyl-4-amino-N-((1-(2,4-difluorophenyl)-1H-pyrazol-3-yl)methyl)-7-fluoro-N′-methylimidazo[1,5-a]quinoxaline-8-carbohydrazide]: under “cell viability”, the CC50 lay in the range of 100 to 1000 nM.
On to `CN(Cc1nc(-c2cnn(C(F)F)c2)cs1)C(=O)c1cc2c(cc1F)nc(N)c1cncn12` [Ff-48, 4-amino-N-((4-(1-(difluoromethyl)-1H-pyrazol-4-yl)thiazol-2-yl)methyl)-7-fluoro-N-methylimidazo[1,5-a]quinoxaline-8-carboxamide], for which the half-maximal cytotoxic concentration (CC50) (cell viability) was 100 to 1000 nM.
For the compound `Cc1ncn2c1c(N)nc1cc(F)c(C(=O)N(Cc3ccc(C(F)(F)F)cn3)C3(C)CC3)cc12` [Ff-590, 4-amino-7-fluoro-3-methyl-N-(1-methylcyclopropyl)-N-((5-(trifluoromethyl)pyridin-2-yl)methyl)imidazo[1,5-a]quinoxaline-8-carboxamide], the cytotoxic concentration (CC50) (cell viability assay) is below 100 nM.
On to `C[C@H]1CN(C(=O)c2ccc3nc(N)c4cncn4c3c2)[C@H]2c3ccc(OC(F)(F)F)cc3C[C@H]2O1` (single isomer, unassigned) [Ff-188], for which the CC50 (cell viability) was below 100 nM.
As for `Nc1nc2ccc(C(=O)N3CCC[C@@H]4Oc5cc(OC(F)(F)F)ccc5[C@@H]43)cc2n2cncc12` [Ff-383, (4-aminoimidazo[1,5-a]quinoxalin-8-yl)((4aS,9bS)-7-(trifluoromethoxy)-3,4,4a,9b-tetrahydrobenzofuro[3,2-b]pyridin-1(2H)-yl)methanone], the cytotoxic concentration (CC50) (cell viability assay) is below 100 nM.
On to `Nc1nc2cc(F)c(C(=O)N3CCO[C@@H]4Cc5c(ccc(C(F)(F)F)c5F)[C@@H]43)cc2n2cncc12` [Ff-691, (4-amino-7-fluoroimidazo[1,5-a]quinoxalin-8-yl)((4aS,9aR)-8-fluoro-7-(trifluoromethyl)-2,3,9,9a-tetrahydroindeno[2,1-b][1,4]oxazin-4(4aH)-yl)methanone], for which the CC50 (cell viability assay) was 100 to 1000 nM.
Take `Cn1ccc(N(Cc2ccc(C(F)(F)F)cc2F)C(=O)c2cc3c(cc2F)nc(N)c2cncn23)n1` [Ff-286, 4-amino-7-fluoro-N-(2-fluoro-4-(trifluoromethyl)benzyl)-N-(1-methyl-1H-pyrazol-3-yl)imidazo[1,5-a]quinoxaline-8-carboxamide]: the 50% cytotoxic concentration (CC50) (cell viability) is below 100 nM.
For `Nc1nc2ccc(C(=O)N3CCC[C@@H]4Oc5c(ccc(C(F)(F)F)c5F)[C@@H]43)cc2n2cncc12` [Ff-118, (4-aminoimidazo[1,5-a]quinoxalin-8-yl)((4aS,9bS)-6-fluoro-7-(trifluoromethyl)-3,4,4a,9b-tetrahydrobenzofuro[3,2-b]pyridin-1(2H)-yl)methanone], under “cell viability”, the CC50 was below 100 nM.
For `C[C@@H]1CN(C(=O)c2cc3c(cc2F)nc(N)c2cncn23)[C@H]2c3cc(F)c(C(F)F)cc3C[C@H]2O1` (single isomer, unassigned) [Ff-172], the CC50 (cell viability) was below 100 nM.
For the compound `Cc1ncc2c(N)nc3cnc(C(=O)N4C[C@H](C)O[C@@H]5Cc6cc(Cl)ccc6[C@@H]54)cc3n12` (single isomer, unassigned) [Ff-464], for the setting “cell viability assay”, the CC50 lay in the range of 100 to 1000 nM.
Take `Cc1c(N(Cc2ccc(C(F)(F)F)cc2F)C(=O)c2cc3c(cc2F)nc(N)c2cncn23)cnn1C` [Ff-414, 4-amino-N-(1,5-dimethylpyrazol-4-yl)-7-fluoro-N-[[2-fluoro-4-(trifluoromethyl)phenyl]methyl]imidazo[1,5-a]quinoxaline-8-carboxamide]: the CC50 (cell viability assay) is below 100 nM.
On to `Nc1nc2ccc(C(=O)N3CCC[C@@H]4Cc5cc(C(F)(F)F)ccc5[C@@H]43)cc2n2cncc12` (racemic) [Ff-249, Rac-(4-aminoimidazo[1,5-a]quinoxalin-8-yl)((4aR,9bR)-7-(trifluoromethyl)-2,3,4,4a,5,9b-hexahydro-1H-indeno[1,2-b]pyridin-1-yl)methanone], for which, under “cell viability”, the CC50 fell in the range of 100 to 1000 nM.
Turning to `Nc1nc2cc(F)c(C(=O)N3CCCC[C@@H]3c3ccc(S(F)(F)(F)(F)F)cc3)cc2n2cncc12` [Ff-404, (R)-(4-amino-7-fluoroimidazo[1,5-a]quinoxalin-8-yl)(2-(4-(pentafluoro-λ^6-sulfaneyl)phenyl)piperidin-1-yl)methanone], under “cell viability assay”, the CC50 is below 100 nM.
As to `C=C(C)c1ccc2c(c1)OC[C@H]2N(C)C(=O)c1cc2c(cc1F)nc(N)c1cncn12` [Ff-478, (S)-4-amino-7-fluoro-N-methyl-N-(6-(prop-1-en-2-yl)-2,3-dihydrobenzofuran-3-yl)imidazo[1,5-a]quinoxaline-8-carboxamide], under “cell viability assay”, the CC50 is below 100 nM.
With `Nc1nc2cc(F)c(C(=O)N3CCO[C@@H]4Cc5cc(C(F)(F)F)ccc5[C@@H]43)cc2n2cncc12` (racemic) [Ff-34, Racemic (4-amino-7-fluoroimidazo[1,5-a]quinoxalin-8-yl)((4aS,9aR)-7-(trifluoromethyl)-2,3,9,9a-tetrahydroindeno[2,1-b][1,4]oxazin-4(4aH)-yl)methanone], the CC50 (cell viability) was below 100 nM.
`CN(C(=O)c1cc2c(cc1F)nc(N)c1cncn12)[C@@H]1COCc2cc(C#CC3(C)COC3)ccc21` [Ff-530, (S)-4-amino-7-fluoro-N-methyl-N-(7-((3-methyloxetan-3-yl)ethynyl)isochroman-4-yl)imidazo[1,5-a]quinoxaline-8-carboxamide]: under “cell viability assay”, the CC50 was below 100 nM.
As to `C[C@@H]1CN(C(=O)c2ccc3nc(N)c4cncn4c3c2)[C@H]2c3ccc(OC(F)(F)F)cc3C[C@H]2O1` (single isomer, unassigned) [Ff-187], the CC50 (cell viability) was below 100 nM.
On the same count and under the same terms, then `Cc1ncn2c1c(N)nc1cc(F)c(C(=O)N(C)[C@@H]3COc4cc(C(F)(F)F)ccc43)cc12` [Ff-305, (S)-4-amino-7-fluoro-N,3-dimethyl-N-(6-(trifluoromethyl)-2,3-dihydrobenzofuran-3-yl)imidazo[1,5-a]quinoxaline-8-carboxamide], with below 100 nM; and `CC(C)N(Cc1ccc(-c2ccnn2C(F)(F)F)cc1F)C(=O)c1cc2c(cc1F)nc(N)c1cncn12` [Ff-216], with below 100 nM.
As for `CO[C@@H]1Cc2cc(Br)ccc2[C@@H]1N(C)C(=O)c1cc2c(cc1F)nc(N)c1cncn12` [Ff-579, 4-amino-N-((1S,2R)-5-bromo-2-methoxy-2,3-dihydro-1H-inden-1-yl)-7-fluoro-N-methylimidazo[1,5-a]quinoxaline-8-carboxamide], for the setting “cell viability assay”, the cytotoxic concentration (CC50) was below 100 nM.
On the same count and under the same terms, in the case of `Cc1ncn2c1c(N)nc1cnc(C(=O)N3CCC[C@@H]4Oc5cc(OC(F)(F)F)c(F)cc5[C@@H]43)cc12` [Fg-32, (4-amino-3-methylimidazo[1,5-a]pyrido[3,4-e]pyrazin-8-yl)((4aS,9bS)-8-fluoro-7-(trifluoromethoxy)-3,4,4a,9b-tetrahydrobenzofuro[3,2-b]pyridin-1(2H)-yl)methanone] it was below 100 nM.
Consider `C[C@@H]1OC[C@@H](N(C)C(=O)c2ccc3nc(N)c4cncn4c3c2)c2ccc(C(F)(F)F)cc21` (racemic) [Ff-41, Trans-4-amino-N-methyl-N-(trans-1-methyl-7-(trifluoromethyl)isochroman-4-yl)imidazo[1,5-a]quinoxaline-8-carboxamide], for which the CC50 (cell viability) was below 100 nM.
As to `CC1(C)C[C@@H]2Oc3cc(C(F)(F)F)ccc3[C@@H]2N(C(=O)c2cc3c(cn2)nc(N)c2cncn23)C1` (racemic) [Ff-258, Rac-(4-aminoimidazo[1,5-a]pyrido[3,4-e]pyrazin-8-yl)((4aR,9bR)-3,3-dimethyl-7-(trifluoromethyl)-3,4,4a,9b-tetrahydrobenzofuro[3,2-b]pyridin-1(2H)-yl)methanone], the 50% cytotoxic concentration (CC50) (cell viability) is below 100 nM.
With `CN(C(=O)c1cc2c(cc1F)nc(N)c1cncn12)[C@@H]1COc2cc(-c3csc(C(F)F)n3)ccc21` [Ff-237, (S)-4-amino-N-(6-(2-(difluoromethyl)thiazol-4-yl)-2,3-dihydrobenzofuran-3-yl)-7-fluoro-N-methylimidazo[1,5-a]quinoxaline-8-carboxamide], the cytotoxic concentration (CC50) (cell viability) was below 100 nM.
Turning to `C[C@@H]1CN(C(=O)c2cc3c(cn2)nc(N)c2cncn23)[C@H]2c3ccc(C(F)(F)F)cc3C[C@H]2O1` [Ff-98, (4-aminoimidazo[1,5-a]pyrido[3,4-e]pyrazin-8-yl)((2R,4aS,9aR)-2-methyl-7-(trifluoromethyl)-2,3,9,9a-tetrahydroindeno[2,1-b][1,4]oxazin-4(4aH)-yl)methanone], the CC50 (cell viability) is below 100 nM.
For `Nc1nc2cc(F)c(C(=O)N3CCC[C@@H]4Oc5cc(F)ccc5[C@@H]43)cc2n2cncc12` [Fg-25, (4-amino-7-fluoroimidazo[1,5-a]quinoxalin-8-yl)((4aS,9bS)-7-fluoro-3,4,4a,9b-tetrahydrobenzofuro[3,2-b]pyridin-1(2H)-yl)methanone], the CC50 (cell viability assay) is below 100 nM.
For `CC(C)N(Cc1ccc(-c2ccnn2C)cc1F)C(=O)c1cc2c(cc1F)nc(N)c1cncn12` [Ff-217, 4-amino-7-fluoro-N-(2-fluoro-4-(1-methyl-1H-pyrazol-5-yl)benzyl)-N-isopropylimidazo[1,5-a]quinoxaline-8-carboxamide], the CC50 (cell viability) was below 100 nM.
For the compound `Nc1nc2cc(F)c(C(=O)N(Cc3ccc(C(F)(F)F)cn3)c3cnn(C(F)F)c3)cc2n2cncc12` [Ff-311, 4-amino-N-(1-(difluoromethyl)-1H-pyrazol-4-yl)-7-fluoro-N-((5-(trifluoromethyl)pyridin-2-yl)methyl)imidazo[1,5-a]quinoxaline-8-carboxamide], the CC50 (cell viability) is below 100 nM.
